Data as given in patent US10322135B2, “Pharmaceutical composition comprising indole compound” (LG CHEM, LTD., priority 2009, dated 2019).

How the values were obtained:
H9C2 cells [1] = assay: Cell protection effect against oxidative stress induced by tBOOH (SRB staining); type: cell-based; details: Rattus norvegicus, 400 μM tBOOH 2 hrs, concentration protecting 50% of cells from necrosis
Procedure: It is known that tertiary-butylhydroperoxide (tBOOH) induces cell necrosis by causing oxidative stress in various cells. […] H9C2 cells were dispensed into each well of a 96-well plate (1.5×10 ^4 cells/100 μl/well). The next day, the cells were pretreated with each compound and then treated with tBOOH (final concentration: 400 μM) for 2 hrs. 50 μl of formaldehyde was added to each well to fix the cells. Cells were fixed for 30 minutes and washed with distilled water three times. Then, the plate was completely dried in a 50° C. dry oven and SRB solution was added thereto to stain remaining protein. The plate was washed with 1% acetic acid and dried. […] Herein, the term “IC50” refers to the concentration of compound which protects 50% of cells from necrosis induced by tBOOH treatment.

[2] = Anti-oxidant effect by using DPPH; type: biochemical; details: read-out: DPPH anti-oxidant effect (IC50); concentration decreasing absorbance at 517 nm to 50%; 30 min, room temperature
Procedure: DPPH (1,1-diphenyl-2-picrylhydrazyl) is a stable free radical and has a purple color. […] Herein, the term “IC50” refers to the concentration of a compound which decreases absorbance at 517 nm to 50% of the original value.
180 μl of DPPH solution (200 μM in DMSO) was dispensed into each well of a 96-well plate, and 20 μl of compounds, which was serially diluted two-fold from 2,000 μM, was added thereto. They were then well mixed and kept at room temperature for 30 minutes. After 30 minutes, O.D. value at 517 nm was measured with a spectraMAX ELISA reader.

[3] = Removal capacity of ONOO− (peroxynitrite) by using dihydrorhodamine 123; type: biochemical; details: 50% inhibition of DHR123 oxidation by 1 μM ONOO−
Procedure: ONOO^− (peroxynitrite), which is known as a kind of RNS, plays a very important role in oxidative stress. Thus, it is very important to evaluate the removal capacity of ONOO^− of necrosis inhibitors. It is well known that DHR123 probe is oxidized by ONOO^−. Thus, by using such a property, the capacity of each compound was measured.
10 μl of each compound, which was serially diluted 3-fold from 50 μM, was dispensed into each well of a 96-well plate, and then 170 μl of assay mixture (10 μM DHR123, 1×PBS, 100 μM DPTA without ONOO^−) was added to each well. Finally, 20 μl of ONOO^− solution (final concentration: 1 μM) was added to initiate a reaction. Herein, the term “IC50” refers to the concentration of compounds which causes 50% inhibition of oxidation of DHR123 by ONOO^−.

H9C2 cells [4] = assay: Anti-oxidant effect by using dihydrorhodamine 123 in tBOOH-treated H9C2 cells; type: cell-based; details: 1 hr pretreatment, 400 μM tBOOH 2 hrs, 25% inhibition of DHR123 fluorescence
Procedure: Dihydrorhodamine 123 itself is nonfluorescent but is converted to fluorescent rhodamine 123 when it is oxidized by ROS (reactive oxygen species) or RNS (reactive nitrogen species). […] H9C2 cells were dispensed into each well of a 96-well plate (1.5×10^4 cells/100 μl/well). The next day, the cells were pretreated with each compound, which was serially diluted 3-fold from the highest concentration, for 1 hr, and then treated with 10 μl of DHR123 12.5 μM stock solution (final concentration: 1.25 μM) in 37° C. incubator for 30 minutes. The cells were then immediately treated with 400 μM tBOOH and incubated for 2 hrs. Then, fluorescence, which was excited at 480 nm and emitted at 538 nm, was measured with a spectraMAX Gemini microplate reader. […] PBS. Then 100 μl of PBS was added to each well of the 96-well plate and fluorescence of each cell was measured by immunofluorescence microscopy (fluorescence microscope: Olympus) (Because of DHR123 in cells, fluorescence is emitted in proportion to oxidation). In addition, inhibition of the generation of superoxide was measured with MitoSOX red probe (final concentration: 5 μM) as the same method.

[5] = Direct anti-oxidant effect on tBOOH (DHR123 probe, cell-free); type: biochemical; details: DHR123 1.25 μM, 2 hrs
Procedure: (§1) 10 μl of DHR123 probe (final concentration: 1.25 μM) was added to 10 μl of each compound which was diluted with 100 μl of DMEM complete media. H2O2 and tBOOH were added as the concentration shown in the following Table 5 and after 2 hrs, fluorescence at wavelengths (480 nm (ex)/538 nm (em)) was measured with spectraMax gemini. Herein, the term “IC25” refers to the concentration of compound which causes 25% decrease of fluorescence assuming the amount emitted by oxidation of DHR123 caused by H2O2 or tBOOH was 100%.

[6] = Direct anti-oxidant effect on H2O2 (DHR123 probe, cell-free); type: biochemical; details: DHR123 1.25 μM, 2 hrs
Procedure: as §1

Row | SMILES | IC50 (H9C2 cells [1]) [µM] | IC50 [2] [µM] | also measured
1 | c1ccc(-c2nc3cccc(NC4CCOCC4)c3[nH]2)cc1 [Example 2, (2-phenyl-3H-benzimidazol-4-yl)-(tetrahydro-pyran-4-yl)-amine] | 2 | – | –
2 | c1ccc(-c2nc3cccc(NC4CCCC4)c3[nH]2)cc1 [Example 1, cyclopentyl-(2-phenyl-3H -benzimidazol-4-yl)-amine] | 0.6 | – | –
3 | O=S1(=O)CCN(Cc2cc(NCC3CCOCC3)c3[nH]c(-c4ccccc4)cc3c2)CC1 [Compound 10, [5-(1,1-dioxo-thiomorpholin-4-yl)methyl-2-phenyl-1H-indol-7-yl]-(tetrahydropyran-4-yl)methyl-amine] | – | 22 | –
4 | O=C(O)C[C@H]1CSC(c2cc3cc(Oc4ccccc4)cc(NC4CCCC4)c3[nH]2)=N1 [Compound 5, [(S)-2-(7-cyclopentylamino-5-phenoxy-1H-indol-2-yl)-4,5-dihydro-thiazol-4-yl]-acetic acid] | – | 20 | IC50 [3]: 3.4 µM
5 | O=S1(=O)CCN(Cc2cc(NC3CCOCC3)c3[nH]c(-c4ccccc4)cc3c2)CC1 [Compound 9, (tetrahydropyran-4-yl)-[2-phenyl-5-(1,1-dioxo-thiomorpholin-4-yl)methyl-1H-indol-7-yl]-amine] | < 0.2 | – | IC25 (μM), anti-oxidant effect by using DHR 123 (H9C2 cells [4]): 0.10 µM
6 | O=C1CN(CC[C@H]2CSC(c3cc4cc(Oc5ccccc5)cc(NC5CCCC5)c4[nH]3)=N2)CCN1 [Compound 6, 4-{2-[(S)-2-(7-cyclopentylamino-5-phenoxy-1H-indol-2-yl)-4,5-dihydro-thiazol-4-yl]-ethyl}-piperazin-2-one] | 0.13 | 23 | –
7 | O=C(O)C[C@H]1CSC(c2cc3cccc(NCC4CCOCC4)c3[nH]2)=N1 [Compound 8, ((S)-2-{7-[(tetrahydropyran-4-ylmethyl)-amino]-1H-indol-2-yl}-4,5-dihydro-thiazol-4-yl)-acetic acid] | – | 20.5 | –
8 | Cc1nnc2n1CCN(CC[C@]1(c3cc4cc(Oc5ccccc5)cc(NC5CCCC5)c4[nH]3)CSC=N1)C2 [Compound 7, cyclopentyl-(2-{(S)-4-[2-(3-methyl-5,6-dihydro-8H-[1,2,4]triazolo[4,3-a]pyrazin-7-yl)-ethyl]-4,5-dihydro-thiazol-4-yl}-5-phenoxy-1H-indol-7-yl)-amine] | – | 25 | –
9 | CS(=O)(=O)N1CCC(Nc2cc(CN3CCS(=O)(=O)CC3)cc3cc(-c4ccccc4)[nH]c23)CC1 [Compound 13, [5-(1,1-dioxo-thiomorpholin-4-yl)methyl-2-phenyl-1H-indol-7-yl]-(1-methylsulfonyl-piperidin-4-yl)-amine] | < 0.2 | 17 | IC25 (μM), anti-oxidant effect by using DHR 123 (H9C2 cells [4]): <0.1 µM; IC50 [3]: 0.9 µM
10 | O=C(O)C[C@H]1CSC(c2cc3cccc(NC4CCCC4)c3[nH]2)=N1 [Compound 4, [(S)-2-(7-cyclopentylamino-1H-indol-2-yl)-4,5-dihydro-thiazol-4-yl]-acetic acid] | – | 15 | IC25(μM) tBOOH (0.2 mM) [5]: 3 µM; IC25(μM) tBOOH (0.4 mM) [5]: 5.8 µM; IC25(μM) H2O2 (0.3 mM) [6]: 2.3 µM; IC25(μM) H2O2 (0.6 mM) [6]: 3.6 µM
11 | Cc1cc(NC2CCOCC2)c2[nH]c(C3=N[C@@H](CC(=O)O)CS3)cc2c1 [Compound 2, {(S)-2-[5-methyl-7-(tetrahydropyran-4-ylamino)-1H-indol-2-yl]-4,5-dihydro-thiazol-4-yl}-acetic acid] | 6.5 | 24 | –
12 | Cc1cc(NCC2CCOCC2)c2[nH]c(C3=N[C@@H](CC(=O)O)CS3)cc2c1 [Compound 14, ((S)-2-{5-methyl-7-[(tetrahydropyran-4-ylmethyl)-amino]-1H-indol-2-yl}-4,5-dihydro-thiazol-4-yl)-acetic acid] | 0.72 | 28 | –
13 | Cc1cc(NC2CCCC2)c2[nH]c(C3=N[C@@H](CC(=O)O)CS3)cc2c1 [Compound 1, [(S)-2-(7-cyclopentylamino-5-methyl-1H-indol-2-yl)-4,5-dihydro-thiazol-4-yl]-acetic acid] | – | 24 | –
14 | O=S1(=O)CCN(Cc2cc(N(CC3CCOCC3)CC3CCOCC3)c3[nH]c(-c4ccccc4)cc3c2)CC1 [Compound 11, [5-(1,1-dioxo-thiomorpholin-4-yl)methyl-2-phenyl-1H-indol-7-yl]-bis-[(tetrahydropyran-4-yl)methyl]-amine] | – | 12.5 | –
15 | Cc1cc(NC2CCCC2)c2[nH]c(C3=N[C@@H](CC(=O)O)CO3)cc2c1 [Compound 3, [(S)-2-(7-cyclopentylamino-5-methyl-1H-indol-2-yl)-4,5-dihydro-oxazol-4-yl]-acetic acid] | – | 17.5 | IC25(μM) tBOOH (0.2 mM) [5]: 2 µM; IC25(μM) tBOOH (0.4 mM) [5]: 2.4 µM; IC25(μM) H2O2 (0.3 mM) [6]: 2.2 µM; IC25(μM) H2O2 (0.6 mM) [6]: 2.15 µM
16 | O=C(C1CCCOC1)N1CCC(Nc2cc(CN3CCS(=O)(=O)CC3)cc3cc(-c4ccccc4)[nH]c23)CC1 (centres unmarked) [Compound 12, {4-[5-(1,1-dioxo-thiomorpholin-4-yl)methyl-2-phenyl-1H-indol-7-ylamino]-piperidin-1-yl}-(tetrahydropyran-3-yl)methanone] | – | 19 | IC25 (μM), anti-oxidant effect by using DHR 123 (H9C2 cells [4]): 0.24 µM; IC50 [3]: 0.21 µM; IC25(μM) tBOOH (0.2 mM) [5]: 1.95 µM; IC25(μM) tBOOH (0.4 mM) [5]: 3 µM; IC25(μM) H2O2 (0.3 mM) [6]: 1.65 µM; IC25(μM) H2O2 (0.6 mM) [6]: 2 µM
